The values that follow come from patent publication US11377473B2, “Albumin-binding prodrugs of auristatin E derivatives” (priority 2017, dated 2022).

The target in data set [1] is T1, cysteine-34 of human serum albumin (Homo sapiens, UniProt P02768).
T1 construct: from tissue; host or cells: human plasma (frozen, thawed, filtered)
As to the kind of experiment: Binding specificity to cysteine-34 of human serum albumin in human plasma (HIC). Type of data set: in vitro ADME. The settings on record: 5 minutes at 37° C. Here is the method:
The albumin-binding auristatin-Sulf07 derivatives were reconstituted in 50 mM sodium phosphate buffer pH 7.6 and 5% sucrose which contained 2-HPβCD. 2% HPβCD concentration was used to reconstitute the AE-Keto-Sulf07 and 4% for the AE-Ester-Sulf07 respectively. Both drugs were reconstituted at a concentration of 1 mg/mL (AE-Ester-Sulf07 780 μM, AE-Keto-Sulf07 880 μM).
Human plasma was removed from −80° C. storage and allowed to reach room temperature. The thawed plasma was spun down at 13.6 kRPM for 60 seconds, the supernatant was filtered through filter needle (5 μm) and subsequently through a 0.45 μm CA membrane. 180 μL of the appropriate plasma was used for each binding experiment. The plasma was incubated at 37° C. using an Eppendorf Thermomixer C. After 30 minutes incubation 20 μL of the appropriate albumin-binding auristatin-Sulf07 derivative was added. The albumin-binding drug was allowed to react in the plasma for 5 minutes at 37° C. After 5 minutes the solution was analyzed directly by HPLC hydrophobic interaction chromatography (HIC, method 6, 250 nm) to confirm the site specific conjugation to albumin and formation of the albumin drug conjugate.

Data set [2] deals with malignant melanoma cancer model A375. As to the kind of experiment: Human malignant melanoma cancer model A375, small tumors. Format: in vivo, NMRI nude mice. Here is the method: Feed and water were provided ad libitum. […] Identification used: ear mark and cage labels. […] Tumor volumes were calculated according to the following equation: […]
The evaluation of auristatin E and the albumin-binding auristatin E derivative AE-Keto-Sulf07 in a human malignant melanoma cancer model A375 was carried out as described in the general procedure for cell-line-derived xenograft models.
Stock solutions were prepared as follows: • 1) 7 mice, 29 g average weight, 135 mm^3 average median tumor volume on day of randomization: 0.3 mg/kg auristatin E TFA salt (AE equiv.) dosed twice weekly for 3 weeks on day 0, 6, 9, 13, 16, 19≡0.35 mg/kg≡7.1 μg/20 g mouse.

Data set [3] relates to panel of 6 selected human cancer cell lines (LXFL 1674L, SW-620, CAL-27, RKO, MDA-MB-468, SK-OV-3). As to the kind of experiment: IC50 determination in a panel of tumor cell lines (CellTiter-Blue Cell Viability assay). Format: cell-based. The settings on record: geometric mean over six cell lines, 96 h treatment; read-out: Geometric mean IC50. On the procedure: Samples were provided to Charles River Discovery Research Services Germany GmbH as frozen stock solutions in pharmaceutical grade DMSO (Sigma-Aldrich, Taufkirchen, Germany). On each day of the experiment, a frozen aliquot of stock solution was thawed. Subsequent serial dilutions were realized with complete RPMI 1640 cell culture medium using an intermediate dilution plate. 10 μL taken from the intermediate dilution plate were then transferred to 140 μL/well of the cell culture plate. Cells were treated with the test compounds at 10 concentrations in triplicate in half-log steps from 0.003 nM to 100 nM for a period of 96 h.
The compounds were tested in a panel of 6 selected human cancer cell lines by using CellTiter-Blue® Cell Viability assay (Promega, Mannheim, Germany). IC values are reported as absolute IC50 values, obtained for a test compound as the geometric mean of IC50 values over all cell lines tested.
The cell lines used were LXFL 1674L (established from patient-derived xenograft at Charles River Discovery Research Services Germany GmbH), SW-620 (kindly provided by the NCI, Bethesda, Md., USA), CAL-27 (purchased from DSMZ, Deutsche Sammlung von Mikroorganismen und Zellkulturen, Braunschweig, Germany), RKO, MDA-MB-468, and SK-OV-3 (from ATCC, American Type Culture Collection, Rockville, Md., USA). Authenticity of all cell lines was proven at the DSMZ by STR (short tandem repeat) analysis, a PCR based DNA-fingerprinting methodology. Cell lines were routinely passaged once or twice weekly and maintained in culture for up to 20 passages. Cells were grown at 37° C. in a humidified atmosphere with 5% CO2 in RPMI 1640 medium (25 mM HEPES, with L-glutamine, Biochrom, Berlin, Germany) supplemented with 10% (v/v) fetal calf serum (Sigma-Aldrich, Taufkirchen, Germany) and 0.1 mg/mL gentamicin (Life Technologies, Karlsruhe, Germany). The CellTiter-Blue® Cell Viability Assay was used according to manufacturer's instructions. Briefly, cells were harvested from exponential phase cultures, counted and plated in 96-well flat-bottom microtiter plates at a cell density of 4,000-10,000 cells/well depending on the cell line's growth rate. After a 24 h recovery period to allow the cells to resume exponential growth, 10 μL of culture medium (six control wells/plate) or of culture medium with test compound were added. The compounds were applied at 10 concentrations in triplicate in half-log increments up to 100 nM and cells were treated continuously for 96 h. […] Following an incubation period of up to 4 h, fluorescence (FU) was measured by using the Enspire Multimode Plate Reader (excitation λ=531 nm, emission λ=615 nm). IC50 values were determined with GraphPad Prism bioanalytic software (San Diego, Calif., USA).
A general note: The colour change of resazurin is a common sign of viable cells or microbes.

The mark [4] stands for this setting: 3.0 mg/kg six times twice weekly.

T1 sequence (P02768 25-609): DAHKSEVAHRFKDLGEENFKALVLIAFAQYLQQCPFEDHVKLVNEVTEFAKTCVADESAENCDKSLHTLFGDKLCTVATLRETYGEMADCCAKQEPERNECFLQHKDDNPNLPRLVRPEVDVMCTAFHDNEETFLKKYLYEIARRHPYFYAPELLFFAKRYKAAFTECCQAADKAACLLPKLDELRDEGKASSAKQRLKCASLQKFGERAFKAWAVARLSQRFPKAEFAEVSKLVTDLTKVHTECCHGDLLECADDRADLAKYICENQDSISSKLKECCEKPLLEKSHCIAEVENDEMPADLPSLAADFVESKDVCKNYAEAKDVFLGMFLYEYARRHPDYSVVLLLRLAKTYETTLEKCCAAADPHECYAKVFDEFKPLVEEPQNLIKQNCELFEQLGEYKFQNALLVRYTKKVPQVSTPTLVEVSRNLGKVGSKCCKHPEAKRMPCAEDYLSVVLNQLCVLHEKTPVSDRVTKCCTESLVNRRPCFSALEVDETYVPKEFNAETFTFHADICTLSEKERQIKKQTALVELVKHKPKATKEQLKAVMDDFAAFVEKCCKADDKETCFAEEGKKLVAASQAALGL

Consider “2-(2-(1-(4-(((1S,2R)-2-((2R,3R)-3-((S)-1-((3R,4R,5S)-4-((S)-2-((R)-2-(dimethylamino)-3-methylbutanamido)-N,3-dimethylbutanamido)-3-methoxy-5-methylheptanoyl)pyrrolidin-2-yl)-3-methoxy-2-methylpropanamido)-1-phenylpropoxy)carbonyl)phenyl)ethylidene)hydrazine-1-carbonyl)-5-(6-(2,5-dioxo-2,5-dihydro-1H-pyrrol-1-yl)hexanamido)benzenesulfonic acid [AE-Ester-Sulf07]”, for which the “specificity of binding to albumin” value in data set [1] is listed as “demonstrated”.
In the case of `CC[C@H](C)[C@@H]([C@@H](CC(=O)N1CCC[C@H]1[C@H](OC)[C@@H](C)C(=O)N[C@H](C)C(=NNC(=O)c1ccc(NC(=O)CCCCCN2C(=O)C=CC2=O)cc1S(=O)(=O)O)c1ccccc1)OC)N(C)C(=O)[C@@H](NC(=O)[C@H](C(C)C)N(C)C)C(C)C` [AE-Keto-Sulf07, 2-(2-((R)-2-((2R,3R)-3-((S)-1-((3R,4S,5S)-4-((S)-2-((S)-2-(dimethylamino)-3-methylbutanamido)-N,3-dimethylbutanamido)-3-methoxy-5-methylheptanoyl)pyrrolidin-2-yl)-3-methoxy-2-methylpropanamido)-1-phenylpropylidene)hydrazine-1-carbonyl)-5-(6-(2,5-dioxo-2,5-dihydro-1H-pyrrol-1-yl)hexanamido)benzenesulfonic acid], in data set [2] (setting [4]), the body weight entry was “only a slight reduction in body weight growth compared to the control” and the side effects result was “no detectable side effects”. In addition, the tumor response result in data set [2] (3.0 mg/kg six times twice weekly, day 19 until end of study on day 37) is recorded as “complete remission (complete remission <10%)”. Also, the “p, antitumor efficacy versus auristatin E” value in data set [2] (3.0 mg/kg versus auristatin E 0.3 mg/kg, six injections twice weekly, day 27 to day 37) is recorded as < 0.01. The molecule also gave a final tumor volume in data set [2] (3.0 mg/kg, day 37) of 1 mm^3. For the same molecule, in data set [1], the “specificity of binding to albumin” value is given as “demonstrated”.
Consider `CC[C@H](C)[C@@H]([C@@H](CC(=O)N1CCC[C@H]1[C@H](OC)[C@@H](C)C(=O)N[C@H](C)[C@@H](O)c1ccccc1)OC)N(C)C(=O)[C@@H](NC(=O)[C@H](C(C)C)N(C)C)C(C)C` [auristatin E], for which the tumor response result in data set [2] (0.3 mg/kg six times twice weekly, until day 21) was “stable disease (stable disease >75-125%)”. Besides, in data set [3], the IC50 is 0.13 nM.

By IC50 is commonly meant the concentration that inhibits the measured activity by half.
